The source of these data is US9221767B2, “Substituted phthalazinones as rock inhibitors” (BRISTOL-MYERS SQUIBB COMPANY, priority 2013, dated 2015).

For orientation: IC50 means the point on the concentration scale where inhibition reaches its midpoint. Read a low IC50 as inhibition by little substance.

The target in one assay is ROCK2 (Homo sapiens (Human), UniProt O75116). As to the kind of experiment: ROCK assay (LabChip peptide phosphorylation), ROCK2. It is filed as biochemical. To be noted: 5 μM ATP, 1.5 μM peptide substrate. As for the experimental part:
(§1) The effectiveness of compounds of the present invention as ROCK inhibitors can be determined in a 30 μL assay containing 20 mM HEPES, pH 7.5, 20 mM MgCl2, 0.015% Brij-35, 4 mM DTT, 5 μM ATP and 1.5 μM peptide substrate (FITC-AHA-[…]-OH). Compounds were dissolved in DMSO so that the final concentration of DMSO was <2%, and the reaction was initiated with Rho kinase variants. After incubation, the reaction was terminated by the addition of EDTA and the phosphorylated and non-phosphorylated peptides separated using a LabChip 3000 Reader (Caliper Life Sciences). […] Compounds were tested in dose-response format, and the inhibition of kinase activity was calculated at each concentration of compound. The inhibition data were fit using a curve-fitting program to determine the IC50; i.e., the concentration of compound required to inhibit 50% of kinase activity.”

Another assay addresses ROCK1 (Homo sapiens (Human), UniProt Q13464). Put plainly: ROCK assay (LabChip peptide phosphorylation), ROCK1. The assay is classed as biochemical. The note with it: 5 μM ATP, 1.5 μM peptide substrate. As for the experimental part: as §1
The subject of another assay is Dahl salt-sensitive rats. To be noted: rat, in vivo; cited from earlier work.
The subject of assay [1] is spontaneously hypertensive rat, renal hypertensive rat and deoxycortisone acetate salt hypertensive rat models. To be noted: cited from earlier work.
For assay [2], the system named is neointimal formation in rats. To be noted: cited from earlier work.
Assay [3] deals with IL-1 beta-induced coronary stenosis. The note with it: long term treatment; cited from earlier work.
The next assay concerns rat stroke model. The note with it: in vivo; cited from earlier work.

Read-outs that look alike come from different tables or passages of the source.

ROCK1, sequence (Q13464 whole entry, species assumed): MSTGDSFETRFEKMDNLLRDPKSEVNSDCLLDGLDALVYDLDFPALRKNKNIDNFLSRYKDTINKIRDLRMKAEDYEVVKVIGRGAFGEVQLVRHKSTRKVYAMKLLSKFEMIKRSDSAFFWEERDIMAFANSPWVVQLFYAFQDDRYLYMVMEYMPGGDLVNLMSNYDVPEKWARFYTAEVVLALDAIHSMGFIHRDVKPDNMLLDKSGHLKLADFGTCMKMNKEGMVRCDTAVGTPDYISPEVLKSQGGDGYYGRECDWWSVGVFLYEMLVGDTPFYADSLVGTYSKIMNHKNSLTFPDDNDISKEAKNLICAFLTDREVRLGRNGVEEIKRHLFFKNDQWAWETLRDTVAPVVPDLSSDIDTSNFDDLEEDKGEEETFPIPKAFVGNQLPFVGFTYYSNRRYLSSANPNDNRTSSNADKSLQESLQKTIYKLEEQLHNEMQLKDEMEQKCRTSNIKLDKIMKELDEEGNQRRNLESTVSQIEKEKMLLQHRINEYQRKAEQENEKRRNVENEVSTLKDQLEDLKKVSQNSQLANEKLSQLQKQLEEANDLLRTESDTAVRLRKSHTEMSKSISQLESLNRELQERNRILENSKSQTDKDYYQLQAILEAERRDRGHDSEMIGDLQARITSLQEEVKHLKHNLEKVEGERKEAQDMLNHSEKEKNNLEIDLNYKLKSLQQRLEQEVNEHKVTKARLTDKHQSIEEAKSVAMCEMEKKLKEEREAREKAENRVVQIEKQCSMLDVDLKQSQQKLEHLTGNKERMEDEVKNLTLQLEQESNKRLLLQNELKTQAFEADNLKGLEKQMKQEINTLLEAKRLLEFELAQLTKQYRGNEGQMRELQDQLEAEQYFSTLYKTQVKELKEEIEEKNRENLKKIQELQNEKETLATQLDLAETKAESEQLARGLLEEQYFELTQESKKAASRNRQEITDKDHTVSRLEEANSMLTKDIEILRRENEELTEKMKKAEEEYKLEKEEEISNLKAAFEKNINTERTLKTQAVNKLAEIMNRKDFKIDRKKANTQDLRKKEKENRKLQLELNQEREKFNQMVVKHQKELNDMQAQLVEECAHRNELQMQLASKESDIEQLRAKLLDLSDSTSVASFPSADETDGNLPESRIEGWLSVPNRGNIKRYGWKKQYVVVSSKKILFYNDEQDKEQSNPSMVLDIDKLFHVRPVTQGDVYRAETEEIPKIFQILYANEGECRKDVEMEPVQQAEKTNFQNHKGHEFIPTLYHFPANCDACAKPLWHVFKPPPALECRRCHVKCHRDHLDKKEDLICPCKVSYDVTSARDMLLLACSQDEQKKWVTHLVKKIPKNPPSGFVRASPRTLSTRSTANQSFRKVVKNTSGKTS
ROCK2, sequence (O75116 whole entry, species assumed): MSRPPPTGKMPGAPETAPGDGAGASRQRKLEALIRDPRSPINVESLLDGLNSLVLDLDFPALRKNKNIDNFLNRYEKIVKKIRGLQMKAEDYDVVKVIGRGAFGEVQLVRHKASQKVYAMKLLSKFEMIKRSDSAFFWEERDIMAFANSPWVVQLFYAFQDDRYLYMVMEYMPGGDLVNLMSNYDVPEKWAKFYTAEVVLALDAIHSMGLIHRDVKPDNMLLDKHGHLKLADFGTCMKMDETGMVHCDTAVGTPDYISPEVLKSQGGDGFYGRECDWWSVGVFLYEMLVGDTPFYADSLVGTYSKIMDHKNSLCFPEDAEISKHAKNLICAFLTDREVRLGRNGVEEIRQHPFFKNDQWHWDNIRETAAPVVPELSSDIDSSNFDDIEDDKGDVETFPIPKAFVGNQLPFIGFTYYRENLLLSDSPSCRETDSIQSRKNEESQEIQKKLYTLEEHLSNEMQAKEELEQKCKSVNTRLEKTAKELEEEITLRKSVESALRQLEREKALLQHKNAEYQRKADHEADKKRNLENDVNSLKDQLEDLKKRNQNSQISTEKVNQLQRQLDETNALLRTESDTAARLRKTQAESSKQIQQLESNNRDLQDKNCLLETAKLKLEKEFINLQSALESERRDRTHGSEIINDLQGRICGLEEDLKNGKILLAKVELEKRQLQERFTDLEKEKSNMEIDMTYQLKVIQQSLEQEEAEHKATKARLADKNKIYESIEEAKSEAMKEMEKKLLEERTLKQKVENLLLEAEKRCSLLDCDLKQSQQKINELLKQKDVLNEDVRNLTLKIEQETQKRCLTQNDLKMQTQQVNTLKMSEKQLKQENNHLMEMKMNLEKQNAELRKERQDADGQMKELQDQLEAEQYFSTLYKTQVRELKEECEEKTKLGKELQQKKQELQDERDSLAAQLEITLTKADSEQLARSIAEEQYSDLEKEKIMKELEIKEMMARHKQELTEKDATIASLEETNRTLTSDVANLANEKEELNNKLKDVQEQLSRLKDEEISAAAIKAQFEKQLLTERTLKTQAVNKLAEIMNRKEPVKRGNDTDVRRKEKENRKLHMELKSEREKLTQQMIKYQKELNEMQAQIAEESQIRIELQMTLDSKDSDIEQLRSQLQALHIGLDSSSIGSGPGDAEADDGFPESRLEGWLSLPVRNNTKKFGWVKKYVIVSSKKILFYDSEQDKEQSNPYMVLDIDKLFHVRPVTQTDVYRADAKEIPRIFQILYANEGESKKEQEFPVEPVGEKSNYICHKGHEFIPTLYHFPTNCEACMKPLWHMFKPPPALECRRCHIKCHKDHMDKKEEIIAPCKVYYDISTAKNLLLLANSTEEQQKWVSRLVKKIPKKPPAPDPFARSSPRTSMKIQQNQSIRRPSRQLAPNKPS

`O=C(Cc1ccc(-c2n[nH]c(=O)c3ccccc23)cc1)N1Cc2ccc(F)cc2C1` [Example 2, 4-(4-(2-(5-fluoroisoindolin-2-yl)-2-oxoethyl)phenyl)phthalazin-1(2H)-one]: the IC50 against ROCK2 is 30 nM; against ROCK1, 679 nM.

As to `O=C(Cc1ccc(-c2n[nH]c(=O)c3ccccc23)cc1)Nc1nc2ccccc2o1` [Example 10], the results for the IC50 against ROCK2 and on ROCK1 were 17 nM and 729 nM, respectively.

With `COC[C@@H]1CCCN1C(=O)Cc1ccc(-c2n[nH]c(=O)c3ccccc23)cc1` [Example 13], the concentration for half-maximal inhibition (IC50) is 9730 nM on ROCK2 and 16200 nM on ROCK1.

Consider `O=C(Cc1ccc(-c2n[nH]c(=O)c3ccccc23)cc1)NC1CCC1` [Example 19], for which the results for the IC50 against ROCK2 and at ROCK1 were 5830 nM and 6480 nM, respectively.

In the case of `CCOc1ccc2c(c1)N(C(=O)Cc1ccc(-c3n[nH]c(=O)c4ccccc34)cc1)CC2` [Example 33], the results for the IC50 against ROCK2 and against ROCK1 were 1.2 nM and 23 nM, respectively.

With `O=C(Cc1ccc(-c2n[nH]c(=O)c3ccccc23)cc1)N1CCCc2ccccc21` [Example 34], the results for the IC50 on ROCK2 and at ROCK1 were 553 nM and 11900 nM, respectively.

As for `O=C(Nc1ccc(-c2n[nH]c(=O)c3ccccc23)cc1)c1csc(-c2ccc(C(F)(F)F)cc2)n1` [Example 48], the IC50 amounted to 39 nM against ROCK2 and 670 nM at ROCK1.

Take `Cn1ccnc1C(=O)Nc1ccc(-c2n[nH]c(=O)c3ccccc23)cc1` [Example 52]: the IC50 against ROCK2 worked out at 225 nM; against ROCK1, 544 nM.

For `CN(C)c1ccc(C(=O)Nc2ccc(-c3n[nH]c(=O)c4ccccc34)cc2)cc1` [Example 58], the IC50 worked out at 0.3 nM against ROCK2 and 35 nM on ROCK1.

Turning to `O=C(Nc1ccc(-c2n[nH]c(=O)c3ccccc23)cc1)c1ccc(N2CCCCC2)cc1` [Example 61], the figures for the IC50 on ROCK2 and against ROCK1 were 2.1 nM and 49 nM, respectively.

In the case of `O=C(Nc1ccc(-c2n[nH]c(=O)c3ccccc23)cc1)c1ccccc1` [Example 67], the IC50 at ROCK2 worked out at 14 nM; at ROCK1, 175 nM.

Regarding `O=C(Oc1ccc(-c2n[nH]c(=O)c3ccccc23)cc1)N1CCC(c2ccccc2)C1` (stereo not shown) [Example 69, 4-(4-oxo-3,4-dihydrophthalazin-1-yl)phenyl 3-phenylpyrrolidine-1-carboxylate], the concentration for half-maximal inhibition (IC50) against ROCK2 stood at 894 nM; against ROCK1 it was 50000 nM.

For `O=C(Nc1ccc(-c2n[nH]c(=O)c3ccccc23)cc1)N1CCc2ccccc21` [Example 76, N-(4-(4-oxo-3,4-dihydrophthalazin-1-yl)phenyl)indoline-1-carboxamide], the IC50 on ROCK2 is 1.2 nM; against ROCK1 it was 20 nM.

On to `C[C@@H](N)[C@H]1CC[C@H](C(=O)Nc2ccncc2)CC1` [Example Y-27632, Y-27632], for which the “ventricular hypertrophy, fibrosis and function” value in the assay with Dahl salt-sensitive rats was “improve ventricular hypertrophy, fibrosis and function”. The blood pressure result was “only a minor effect on blood pressure” in assay [1] (control rats) and “significantly decrease blood pressure” in assay [1] (three rat models of hypertension). The neointimal formation result in assay [2] is “inhibited neointimal formation”.

Turning to `O=S(=O)(c1cccc2cnccc12)N1CCCNCC1` [fasudil], in assay [3], the coronary constrictive remodeling entry was “promote a regression of coronary constrictive remodeling” and the coronary stenosis result is recorded as “progressively reduce coronary stenosis”. Moreover, in the assay with rat stroke model, the infarct size entry was “reduce” and the neurologic deficit result was “reduce”.
